Experimental data taken from patent US6979686B1, “Substituted pyrazoles as p38 kinase inhibitors” (Pharmacia Corporation, priority 2001, dated 2005).
Like-named read-outs stand apart in the source and are kept apart here. Values belong to the molecule of their own block, whether it stands above or below them.

Biological target: T1, human p38 kinase alpha (Homo sapiens, UniProt Q16539)
T1 construct: GST (N, cleaved yes); made in house; host or cells: E. coli DH10B
Assay: p38 kinase in vitro assay, phosphorylation of biotinylated PHAS-I with 32P-ATP
Assay type: biochemical
Settings: for IC50: read-out: P38 alpha kinase IC50; for inhibition at 1 µM: read-out: P38 alpha kinase % inhib @ conc.
Procedure: The coding region of the human p38a cDNA was obtained by PCR-amplification from RNA isolated from the human monocyte cell line THP.1. […] Random primer, dNTP's and Superscript™ reagents were all purchased from Life-Technologies, Gaithersburg, Mass. The reaction was incubated at 42° C. for 1 hour. Amplification of p38 cDNA was performed by aliquoting 5 μl of the reverse transcriptase reaction into a 100 μl PCR reaction containing the following: 80 μl dH2O, 2 μl 50 mM DNTP's, 1 μl each of forward and reverse primers (50 pmol/μl), 10 μl of 10×buffer and 1 μl Expand™ polymerase (Boehringer Mannheim). The PCR primers incorporated BamHI sites onto the 5′ and 3′ end of the amplified fragment, and were purchased from Genosys. […] The PCR amplification was carried out in a DNA Thermal Cycler (Perkin Elmer) by repeating 30 cycles of 94° C. for 1 minute, 60° C. for 1 minute and 68° C. for 2 minutes. After amplification, excess primers and unincorporated dNTP's were removed from the amplified fragment with a Wizard™ PCR prep (Promega) and digested with BamHI (New England Biolabs). The BamHI digested fragment was ligated into BamHI digested PGEX 2T plasmid DNA (PharmaciaBiotech) using T-4 DNA ligase (New England Biolabs) as described by T. Maniatis, Molecular Cloning: A Laboratory Manual, 2nd ed. […] The ligation reaction was transformed into chemically competent E. coli DH10B cells purchased from Life-Technologies following the manufacturer's instructions. Plasmid DNA was isolated from the resulting bacterial colonies using a Promega Wizard™ miniprep kit.
Expression of Human p38a:
Overnight cultures were grown in-Luria Broth (LB) containing […] ampicillin. The next day, 500 ml of fresh LB was inoculated with 10 ml of overnight culture, and grown in a 2 liter flask at 37° C. with constant shaking until the culture reached an absorbance of 0.8 at 600 nm. Expression of the fusion protein was induced by addition of isopropyl b-D-thiogalactosidse (IPTG) to a final concentration of 0.05 mM. The cultures were shaken for three hours at room temperature, and the cells were harvested by centrifugation. The cell pellets were stored frozen until protein purification.
Purification of p38 Kinase-α:
All chemicals were from Sigma Chemical Co. unless noted. Twenty grams of E. coli cell pellet collected from five 1 L shake flask fermentations was resuspended in a volume of PBS (140 mM NaCl, 2.7 mM KCl, 10 mM Na2HPO4, 1.8 mM KH2PO4, pH 7.3) up to 200 ml. The cell suspension was adjusted to 5 mM DTT with 2 M DTT and then split equally into five 50 ml Falcon conical tubes. The cells were sonnicated (Ultrasonics model W375) with a 1 cm probe for 3×1 minutes (pulsed) on ice. Lysed cell material was removed by centrifugation (12,000×g, 15 minutes) and the clarified supernatant applied to glutathione-sepharose resin (Pharmacia).
Glutathione-sepharose Affinity Chromatography:
The resin was collected by centrifugation (600×g, 5 min) and washed with 2×150 ml PBS/1% Triton X-100, followed by 4×40 ml PBS. To cleave the p38 kinase from the GST-p38 fusion protein, the glutathione-sepharose resin was resuspended in 6 ml PBS containing 250 units thrombin protease (Pharmacia, specific activity>7500 units/mg) and mixed gently for 4 hours at room temperature. The glutathione-sepharose resin was removed by centrifugation (600×g, 5 min) and washed 2×6 ml with PBS. The PBS wash fractions and digest supernatant containing p38 kinase protein were pooled and adjusted to 0.3 mM PMSF.
Mono O Anion Exchange Chromatography:
The thrombin-cleaved p38 kinase was further purified by FPLC-anion exchange chromatography.

[1] = in vitro P38-alpha kinase inhibition

T1 sequence (Q16539 whole entry): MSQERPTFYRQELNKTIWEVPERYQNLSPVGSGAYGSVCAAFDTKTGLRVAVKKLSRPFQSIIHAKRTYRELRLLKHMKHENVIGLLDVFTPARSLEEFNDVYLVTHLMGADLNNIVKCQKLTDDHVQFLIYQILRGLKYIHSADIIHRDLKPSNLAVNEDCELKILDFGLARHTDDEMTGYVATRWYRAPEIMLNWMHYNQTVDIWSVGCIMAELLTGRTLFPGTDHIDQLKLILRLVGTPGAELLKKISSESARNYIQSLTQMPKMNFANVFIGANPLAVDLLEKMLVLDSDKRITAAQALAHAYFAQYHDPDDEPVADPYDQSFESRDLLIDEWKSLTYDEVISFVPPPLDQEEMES

SMILES: O=C(NCc1[nH]nc(-c2ccc(F)cc2)c1-c1ccncc1)c1ccc(I)cc1 [Example B-0017]
inhibition at 1 µM (@ 1.0 uM): 56%

SMILES: O=S(=O)(NCCCc1[nH]nc(-c2ccc(F)cc2)c1-c1ccncc1)c1ccccc1F [Example B-1197]
P38 alpha kinase % inhib @ conc. (@ 1.0 uM): 77.0% @

SMILES: O=S(=O)(NCCc1[nH]nc(-c2ccc(F)cc2)c1-c1ccncc1)c1ccccc1 [Example B-1014]
P38 alpha kinase % inhib @ conc. (uM) (@ 1.0 uM): 88.0% @

SMILES: Cc1c(C)c(S(=O)(=O)NC(C)c2[nH]nc(-c3ccc(F)cc3)c2-c2ccncc2)c(C)c2c1OC(C)(C)CC2 (stereo not shown) [Example B-0659]
IC50 [1]: 2640 nM

SMILES: CC(NC(=O)NC(C)c1[nH]nc(-c2ccc(F)cc2)c1-c1ccncc1)c1ccccc1 (stereo not shown) [Example B-0414]
IC50 [1]: 2540 nM

SMILES: CC(NC(=O)c1cccc(Cl)c1)c1[nH]nc(-c2ccc(F)cc2)c1-c1ccncc1 (stereo not shown) [Example B-0702]
IC50 [1]: 36 nM

SMILES: C[C@@H](NS(=O)(=O)c1ccc(F)c(Cl)c1)c1[nH]nc(-c2ccc(F)cc2)c1-c1ccncc1 [Example B-0466]
IC50 [1]: < 100 nM

SMILES: O=C(NCCc1[nH]nc(-c2ccc(F)cc2)c1-c1ccncc1)c1ccc(F)c(F)c1 [Example B-1129]
IC50 [1]: 1070 nM

SMILES: O=S(=O)(Cc1ccccc1)NCCCc1[nH]nc(-c2ccc(F)cc2)c1-c1ccncc1 [Example B-1194]
P38 alpha kinase % inhib @ conc. (uM) (@ 1.0 uM): 87.0% @

SMILES: Cc1ccc(C(=O)NC(Cc2ccccc2)c2[nH]nc(-c3ccc(F)cc3)c2-c2ccncc2)cc1 (stereo not shown) [Example B-0850]
IC50 [1]: 1810 nM

SMILES: N#Cc1ccc(S(=O)(=O)NCCc2[nH]nc(-c3ccc(F)cc3)c2-c2ccncc2)cc1 [Example B-1107]
IC50 [1]: 57 nM

SMILES: Cc1cc(C)c(C(=O)NCCc2[nH]nc(-c3ccc(F)cc3)c2-c2ccncc2)c(C)c1 [Example B-1133]
IC50 [1]: 380 nM

SMILES: O=C(NC(Cc1ccccc1)c1[nH]nc(-c2ccc(F)cc2)c1-c1ccncc1)c1ccc(I)cc1 (stereo not shown) [Example B-0807]
IC50 [1]: 10800 nM

SMILES: C=CCNC(=O)NCCc1[nH]nc(-c2ccc(F)cc2)c1-c1ccncc1 [Example B-1040]
P38 alpha kinase % inhib @ conc. (uM) (@ 1.0 uM): 72.0% @

SMILES: O=C(NCc1[nH]nc(-c2ccc(F)cc2)c1-c1ccncc1)c1cc(Cl)cc(Cl)c1 [Example B-0020]
inhibition at 1 µM (@ 1.0 uM): 73%

SMILES: COc1ccccc1C(=O)NCCCc1[nH]nc(-c2ccc(F)cc2)c1-c1ccncc1 [Example B-1172]
P38 alpha kinase % inhib @ conc. (uM) (@ 1.0 uM): 68.0% @

SMILES: CN(C)C(=O)NCCc1[nH]nc(-c2ccc(F)cc2)c1-c1ccncc1 [Example B-1035]
P38 alpha kinase % inhib @ conc. (uM) (@ 1.0 uM): 75.0% @

SMILES: O=S(=O)(NC(Cc1ccccc1)c1[nH]nc(-c2ccc(F)cc2)c1-c1ccncc1)c1ccccc1F (stereo not shown) [Example B-0714]
IC50 [1]: 3700 nM

SMILES: O=S(=O)(NCCc1[nH]nc(-c2ccc(F)cc2)c1-c1ccncc1)C(F)(F)F [Example B-1019]
P38 alpha kinase % inhib @ conc. (uM) (@ 1.0 uM): 82.0% @

SMILES: Cc1ccc(C(=O)NCCCc2[nH]nc(-c3ccc(F)cc3)c2-c2ccncc2)cc1 [Example B-1179]
P38 alpha kinase % inhib @ conc. (uM) (@ 1.0 uM): 86.0% @

SMILES: O=C(Cc1cccs1)NCCCc1[nH]nc(-c2ccc(F)cc2)c1-c1ccncc1 [Example B-1228]
P38 alpha kinase % inhib @ conc. (@ 1.0 uM): 90.0% @

SMILES: O=C(NCCCc1[nH]nc(-c2ccc(F)cc2)c1-c1ccncc1)c1ccccc1 [Example B-1180]
P38 alpha kinase % inhib @ conc. (uM) (@ 1.0 uM): 78.0% @

SMILES: CCCCOc1ccc(S(=O)(=O)NC(C)c2[nH]nc(-c3ccc(F)cc3)c2-c2ccncc2)cc1 (stereo not shown) [Example B-0633]
IC50 [1]: 600 nM

SMILES: CC(=O)Nc1nc(C)c(S(=O)(=O)NCCc2[nH]nc(-c3ccc(F)cc3)c2-c2ccncc2)s1 [Example B-1058]
IC50 [1]: 660 nM

SMILES: CC(NC(=O)c1ccccn1)c1[nH]nc(-c2ccc(F)cc2)c1-c1ccncc1 (stereo not shown) [Example B-0556]
IC50 [1]: 490 nM

Continued, values first:

IC50 (in vitro P38-alpha kinase): 2160 nM
SMILES: Cc1c(-c2ccncc2)c(-c2ccc(F)cc2)nn1CC(=O)NCc1ccc(N(C)C)cc1 [Example B-2275]

P38 alpha kinase IC50, uM or % inhib @ conc. (uM): % inhib (@ 10.0 uM): 89.0% 2
SMILES: Cc1c(-c2ccncc2)c(-c2ccc(F)cc2)nn1CC(=O)Nc1c(Cl)cccc1Cl [Example B-2421]

IC50 (in vitro P38-alpha kinase): < 100 nM
SMILES: O=S(=O)(NCCCc1[nH]nc(-c2ccc(F)cc2)c1-c1ccncc1)c1cccc(Cl)c1 [Example B-1267]

P38 alpha kinase IC50, uM or % inhib @ conc. (uM): % inhib (@ 10.0 uM): 80.0% @
SMILES: Cc1c(-c2ccncc2)c(-c2ccc(F)cc2)nn1CC(=O)Nc1ccccc1SCCCc1ccccc1 [Example B-2460]

IC50 (in vitro P38-alpha kinase): 470 nM
SMILES: O=S(=O)(NCCCc1[nH]nc(-c2ccc(F)cc2)c1-c1ccncc1)c1ccc(Cl)c(Cl)c1 [Example B-1270]

IC50 (in vitro P38-alpha kinase): 62 nM
SMILES: O=C(NCCCc1[nH]nc(-c2ccc(F)cc2)c1-c1ccncc1)c1ccc(F)cc1F [Example B-1353]

P38 alpha kinase % inhib @ conc. (@ 10.0 uM): 49.0% @
SMILES: Cc1c(-c2ccncc2)c(-c2ccc(F)cc2)nn1CC(=O)NC1CCCCC1 [Example B-2347]

IC50 (in vitro P38-alpha kinase): 2100 nM
SMILES: O=S(=O)(c1cc(Cl)ccc1Cl)N1CCC(c2[nH]nc(-c3ccc(F)cc3)c2-c2ccncc2)CC1 [Example B-1450]

IC50 (in vitro P38-alpha kinase): 250 nM
SMILES: O=C(NCCCc1[nH]nc(-c2ccc(F)cc2)c1-c1ccncc1)c1cc(F)cc(C(F)(F)F)c1 [Example B-1342]

IC50 (in vitro P38-alpha kinase): 450 nM
SMILES: O=C(NCCCc1[nH]nc(-c2ccc(F)cc2)c1-c1ccncc1)c1cccc(Cl)c1Cl [Example B-1333]

P38 alpha kinase % inhib @ conc. (@ 10.0 uM): 82.0% @
SMILES: COC(=O)C(NC(=O)Cn1nc(-c2ccc(F)cc2)c(-c2ccncc2)c1C)C(C)C (stereo not shown) [Example B-2365]

P38 alpha kinase IC50, uM or % inhib @ conc. (uM): % inhib (@ 10.0 uM): 86.0% @
SMILES: Cc1cccc(NC(=O)Cn2nc(-c3ccc(F)cc3)c(-c3ccncc3)c2C)c1 [Example B-2424]

P38 alpha kinase % inhib @ conc. (@ 10.0 uM): 60.0% @
SMILES: COCC(C)NC(=O)Cn1nc(-c2ccc(F)cc2)c(-c2ccncc2)c1C (stereo not shown) [Example B-2325]

IC50 (in vitro P38-alpha kinase): 860 nM
SMILES: CC(C)COC(=O)N1CCC(c2[nH]nc(-c3ccc(F)cc3)c2-c2ccncc2)CC1 [Example B-1424]

IC50 (in vitro P38-alpha kinase): 7 nM
SMILES: O=C(NCCCc1[nH]nc(-c2ccc(F)cc2)c1-c1ccncc1)c1c(F)ccc(F)c1F [Example B-1332]

IC50 (in vitro P38-alpha kinase): 3 nM
SMILES: C=CCOC(=O)N1CCC(c2[nH]nc(-c3ccc(F)cc3)c2-c2ccncc2)CC1 [Example B-1362]

IC50: 290 nM
SMILES: CN(C)[C@H]1CC[C@@H](c2[nH]nc(-c3ccc(C(F)(F)F)cc3)c2-c2ccncc2)CC1 [Example C-102, 5-cis-(4-N,N-DIMETHYLAMINOCYCLOHEXYL)-4-(4-PYRIDYL)-3-[4-(TRIFLUOROMETHYL)PHENYL]PYRAZOLE]

IC50 (in vitro P38-alpha kinase): 280 nM
SMILES: O=C(c1cc(C(F)(F)F)ccc1F)N1CCC(c2[nH]nc(-c3ccc(F)cc3)c2-c2ccncc2)CC1 [Example B-1405]

P38 alpha kinase % inhib @ conc. (@ 10.0 uM): 77.0% @
SMILES: CCCC(CCC)NC(=O)Cn1nc(-c2ccc(F)cc2)c(-c2ccncc2)c1C [Example B-2356]

P38 alpha kinase % inhib @ conc. (@ 10.0 uM): 35.0% @
SMILES: Cc1c(-c2ccncc2)c(-c2ccc(F)cc2)nn1CC(=O)NC(C)CCc1ccccc1 (stereo not shown) [Example B-2340]

IC50 (in vitro P38-alpha kinase): 410 nM
SMILES: CC(C)c1ccc(S(=O)(=O)NCCCc2[nH]nc(-c3ccc(F)cc3)c2-c2ccncc2)cc1 [Example B-1251]

IC50 (in vitro P38-alpha kinase): 69 nM
SMILES: O=C(c1ccc(Cl)cc1Cl)N1CCC(c2[nH]nc(-c3ccc(F)cc3)c2-c2ccncc2)CC1 [Example B-1417]

IC50 (in vitro P38-alpha kinase): 14 nM
SMILES: Cc1cccc(C(=O)NCCCc2[nH]nc(-c3ccc(F)cc3)c2-c2ccncc2)c1 [Example B-1344]

IC50 (in vitro P38-alpha kinase): 4540 nM
SMILES: Cc1noc(C)c1C(=O)N1CCC(c2[nH]nc(-c3ccc(F)cc3)c2-c2ccncc2)CC1 [Example B-1403]

IC50 (in vitro P38-alpha kinase): < 100 nM
SMILES: O=C(c1ccno1)N1CCC(c2[nH]nc(-c3ccc(F)cc3)c2-c2ccncc2)CC1 [Example B-1367]

IC50 (in vitro P38-alpha kinase): 150 nM
SMILES: O=S(=O)(NCCCc1[nH]nc(-c2ccc(F)cc2)c1-c1ccncc1)c1ccc(-c2ccccn2)s1 [Example B-1288]

IC50 (in vitro P38-alpha kinase): 430 nM
SMILES: CCc1ccc(S(=O)(=O)NCCCc2[nH]nc(-c3ccc(F)cc3)c2-c2ccncc2)cc1 [Example B-1265]
